Experimental data as given in paper PMC6270917, “Study on the Mechanism of Intestinal Absorption of Epimedins A, B and C in the Caco-2 Cell Model” (Molecules, 2014).
Read-outs that look alike come from different tables or passages of the source.

What was measured:
[1] = Bidirectional transport (A-B and B-A) across Caco-2 cell monolayers; type: in vitro ADME; settings: human; for efflux ratio at 5 h, 20 µM / efflux ratio at 5 h: Caco-2, pH 7.4; for efflux ratio at 5 h, 20 µM: 20 μM epimedin, no inhibitor, read-out: efflux ratio (PBA/PAB), control without inhibitor; for efflux ratio at 5 h / Papp A→B at 5 h / Papp B→A at 5 h: concentrations of 5–40 μM; for efflux ratio at 5 h: read-out: efflux ratio (PBA/PAB); for Papp A→B at 5 h / Papp B→A at 5 h: Caco-2, HBSS pH 7.4; for Papp A→B at 5 h: A-B direction, read-out: absorptive permeability (PAB); for Papp B→A at 5 h: B-A direction, read-out: secretory permeability (PBA)
Experimental: The Caco-2 TC7 cell line (at passage 30) is generally similar to the wild-type Caco-2 cell line. […] The conditions for Caco-2 cell culture have been described previously. Cells were cultured in a humidified atmosphere of 5% CO2 and 95% air at 37 °C. The culture medium (Dulbecco’s modified Eagle’s medium ) was supplemented with 10% (v/v) fetal bovine serum, 1% nonessential amino acids, 100 U/mL penicillin, and 100 µg/mL streptomycin. When the cell culture reached 80% confluence, it was rinsed with phosphate-buffered saline and split using trypsin. For transport experiments, the cells were seeded on 3 μm porous polycarbonate cell culture Transwell® inserts from Nunc, which has a surface area of 4.2 cm^2 at a density of 100,000 cells/cm^2. The culture media was replaced every other day. The monolayers were ready for experiments from 19 to 21 days after seeding. Transepithelial electrical resistance (TEER) was used to monitor the integrity and tight junction of the Caco-2 cell monolayer.
Epimedin A, epimedin B, and epimedin C were dissolved in dimethyl sulfoxide (DMSO)-ethanol (v/v = 6/4) to prepare the stock solution (8 mM) for each single compound. The above-mentioned solutions were further diluted with HBSS solution (pH = 7.4) to obtain a series of working standard solutions, and the final concentrations of epimedin A, epimedin B, and epimedin C in the transport samples were 5 µM, 10 µM, 20 µM and 40 µM, respectively. Moreover, the final concentrations of the organic solvent of different samples were controlled below 0.5% to ensure the safety to the cells.
(§1) The transport experiments were performed as described previously. Firstly, the cell monolayers were rinsed thrice with 37 °C HBSS (pH 7.4), and the monolayers were incubated with the buffer for 1 h, then the incubation medium was aspirated. Afterwards, transport from the apical side (AP) to basolateral side (BL): 2.9 mL drug solution were added to the AP side (which was regarded as donor side) and 2.5mL HBSS were added to the BL side (which was regarded as receiver side). Transport from the basolateral side to apical side: 2.9 mL drug solution were added to the BL (donor) side and 2.5 mL HBSS were added to the AP (receiver) side. When the transport inhibitors were used, they were loaded only at the donor side. In the test for each solution, four donor samples (400 μL) and four receiver samples (400 μL) were taken at time intervals of 2, 3, 4, and 5 h after incubation, followed by an immediate replacement with fresh donor solution (400 μL) to the donor side or fresh buffer (400 μL) to the receiver side.
(§2) To each transport sample (400 µL), acetonitrile (100 µL) containing 100 µM of testosterone was added as an internal standard and preservation. The resulting mixture was vortexed for 30 sec and then centrifuged at 15,000 rpm for 15min. The supernatant obtained was determined by ultra-performance liquid chromatography (UPLC) within 24 h. At the end of the transport experiment, the TEER value was remeasured to confirm the integrity of the cell monolayer.
UPLC was used to determine the concentration of the compounds in the transport samples obtained from the Caco-2 model. The conditions for UPLC analysis of epimedin A, epimedin B, and epimedin C in the presence of inhibitors (verapamil or MK571) were as follows: system, Waters Acquity^TM UPLC with photodiode array detector and Empower software; column, Acquity UPLC BEH C18, 1.7 μm, 2.1 × 50 mm (Waters, Milford, MA, USA); mobile phase A, acetonitrile; mobile phase B, water; gradient, 0 to 0.5 min, 25% A, 0.5 to 1.0 min, 25% to 60% A, 1.0 to 2.5 min, 60% to 80% A, 2.5 to 3 min, 80% to 25% A; flow rate, 0.4 mL/min; wavelength, 270 nm (epimedin A, epimedin B and epimedin C), 283nm (MK571), 278 nm (verapamil) and 245 nm (testosterone); column temperature, 30 °C; and injection volume, 5 μL. […]

[2] = tested on: Caco-2 cells; test: MTT cell viability assay; type: cell-based, human; settings: for reduction of cell viability rate of Caco-2 cells: 80 μM (highest concentration), 36 h, vs control; for cytotoxicity to the growth of Caco-2 cells: 10-80 μM
Experimental: Cell viability was measured using the 3-(4, 5-dimethylthiazol-2-yl)-2,5-diphenyltetrazolium bromide (MTT) assay. The Caco-2 cells were seeded in 96-well plates at a density of 2 × 10^3 cells/well in DMEM culture medium and cultured at 37 °C for 24 h. After that, the culture medium was replaced with fresh medium containing epimedins A, B, and C at concentrations ranging from 10 μM to 80 μM. Control groups consist of cells in medium (without epimedins A, B, and C) which are processed identically and incubated simultaneously as treated groups. And then the 96-well plates were incubated for 36 h. Subsequently, 10 μL of 5 mg/mL MTT was added to each well and the plates were incubated for another 4 h. The solutions in each well were then removed followed by dissolving the remained formazan crystals in the cells with 100 μL DMSO. The absorbance was measured at 550 nm using a microplate reader (Thermo Labsystems, Helsinki, Finland). The cell viability of each compound was calculated as the percentage of the absorbance relative to that of negative control.

[3] = tested on: multidrug resistance proteins (MRPs); test: Caco-2 transport in the presence of MK571 (MRP inhibitor); type: in vitro ADME, human; settings: 20 μM epimedin, 50 μM MK571
Experimental: (§3) Meanwhile, verapamil was dissolved in water to 2 mM as well as MK571 and dipyridamole were dissolved in dimethyl sulfoxide (DMSO)-ethanol (v/v = 1/1) to prepare the stock solution (10 mM) when they were used. In addition, testosterone (internal standard) was dissolved in acetonitrile with acetic acid (v/v = 94/6) to 100 µM.
as §1, §2
(§4) UPLC was used to determine the concentration of the compounds in the transport samples obtained from the Caco-2 model. The conditions for UPLC analysis of epimedin A, epimedin B, and epimedin C in the presence of inhibitors (verapamil or MK571) were as follows: system, Waters Acquity^TM UPLC with photodiode array detector and Empower software; column, Acquity UPLC BEH C18, 1.7 μm, 2.1 × 50 mm (Waters, Milford, MA, USA); mobile phase A, acetonitrile; mobile phase B, water; gradient, 0 to 0.5 min, 25% A, 0.5 to 1.0 min, 25% to 60% A, 1.0 to 2.5 min, 60% to 80% A, 2.5 to 3 min, 80% to 25% A; flow rate, 0.4 mL/min; wavelength, 270 nm (epimedin A, epimedin B and epimedin C), 283nm (MK571), 278 nm (verapamil) and 245 nm (testosterone); column temperature, 30 °C; and injection volume, 5 μL.
(§5) In the Caco-2 cell model, rate of transport is obtained from amount transported versus time curve using linear regression. […] The rate of drug transport was calculated by linear regression analysis using Microsoft Excel software (Microsoft Corporation, Redmond, WA, USA ). All data were presented as means ± SD. Statistical comparisons were evaluated by ANOVA test using the SPSS 16 software. Results were considered significant at p < 0.05.

[4] = target: T1, breast cancer resistance protein (BCRP) (Homo sapiens, UniProt Q9UNQ0); test: Caco-2 transport in the presence of dipyridamole (BCRP inhibitor); type: in vitro ADME; settings: 20 μM epimedin
T1 construct: endogenous in cells; host or cells: Caco-2 TC7 cell monolayers
T1 sequence (Q9UNQ0 1-655): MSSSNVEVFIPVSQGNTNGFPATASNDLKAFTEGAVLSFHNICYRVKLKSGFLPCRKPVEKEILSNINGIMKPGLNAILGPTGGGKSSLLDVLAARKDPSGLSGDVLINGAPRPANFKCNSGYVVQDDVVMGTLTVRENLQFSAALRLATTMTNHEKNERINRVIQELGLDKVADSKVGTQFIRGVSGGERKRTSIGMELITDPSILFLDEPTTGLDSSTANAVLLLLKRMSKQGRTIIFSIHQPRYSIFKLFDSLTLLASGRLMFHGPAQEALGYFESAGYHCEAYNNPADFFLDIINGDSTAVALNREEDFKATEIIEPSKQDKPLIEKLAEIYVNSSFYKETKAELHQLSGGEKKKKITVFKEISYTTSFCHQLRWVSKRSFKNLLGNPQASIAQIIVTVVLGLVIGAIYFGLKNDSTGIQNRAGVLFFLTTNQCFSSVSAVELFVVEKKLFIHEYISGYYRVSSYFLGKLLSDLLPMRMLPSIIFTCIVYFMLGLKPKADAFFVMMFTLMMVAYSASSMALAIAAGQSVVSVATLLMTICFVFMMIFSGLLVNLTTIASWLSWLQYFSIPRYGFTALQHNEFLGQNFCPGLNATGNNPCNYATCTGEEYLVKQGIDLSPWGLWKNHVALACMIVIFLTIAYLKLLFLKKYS
Experimental: as §3, §1, §2
While analysis the samples in the presence of another inhibitor (dipyridamole), the conditions were as follows: system and column were the same as before; mobile phase A, 90% acetonitrile, 10%water; mobile phase B, 10% acetonitrile, 90% water containing 0.015% (v/v) formic acid and 0.02% (v/v) triethylamine (pH 3.0); gradient, 0–0.3 min, 95% B, 0.3–2.9 min, 95%–65% B, 3.8 min, 0% B, 3.8–4.5 min, 0%–95% B; flow rate, 0.4 mL/min; wavelength, 270 nm (epimedin A, epimedin B and epimedin C), 285 nm (dipyridamole) and 245 nm (testosterone,); column temperature, 30 °C; and injection volume, 5 μL.
as §5

[5] = target: T2, P-glycoprotein (P-gp) (Homo sapiens, UniProt P08183); test: Caco-2 transport in the presence of verapamil (P-gp inhibitor); type: in vitro ADME; settings: 20 μM epimedin; for efflux ratio at 5 h, 20 µM: human
T2 construct: endogenous in cells; host or cells: Caco-2 TC7 cell monolayers
T2 sequence (P08183 whole entry): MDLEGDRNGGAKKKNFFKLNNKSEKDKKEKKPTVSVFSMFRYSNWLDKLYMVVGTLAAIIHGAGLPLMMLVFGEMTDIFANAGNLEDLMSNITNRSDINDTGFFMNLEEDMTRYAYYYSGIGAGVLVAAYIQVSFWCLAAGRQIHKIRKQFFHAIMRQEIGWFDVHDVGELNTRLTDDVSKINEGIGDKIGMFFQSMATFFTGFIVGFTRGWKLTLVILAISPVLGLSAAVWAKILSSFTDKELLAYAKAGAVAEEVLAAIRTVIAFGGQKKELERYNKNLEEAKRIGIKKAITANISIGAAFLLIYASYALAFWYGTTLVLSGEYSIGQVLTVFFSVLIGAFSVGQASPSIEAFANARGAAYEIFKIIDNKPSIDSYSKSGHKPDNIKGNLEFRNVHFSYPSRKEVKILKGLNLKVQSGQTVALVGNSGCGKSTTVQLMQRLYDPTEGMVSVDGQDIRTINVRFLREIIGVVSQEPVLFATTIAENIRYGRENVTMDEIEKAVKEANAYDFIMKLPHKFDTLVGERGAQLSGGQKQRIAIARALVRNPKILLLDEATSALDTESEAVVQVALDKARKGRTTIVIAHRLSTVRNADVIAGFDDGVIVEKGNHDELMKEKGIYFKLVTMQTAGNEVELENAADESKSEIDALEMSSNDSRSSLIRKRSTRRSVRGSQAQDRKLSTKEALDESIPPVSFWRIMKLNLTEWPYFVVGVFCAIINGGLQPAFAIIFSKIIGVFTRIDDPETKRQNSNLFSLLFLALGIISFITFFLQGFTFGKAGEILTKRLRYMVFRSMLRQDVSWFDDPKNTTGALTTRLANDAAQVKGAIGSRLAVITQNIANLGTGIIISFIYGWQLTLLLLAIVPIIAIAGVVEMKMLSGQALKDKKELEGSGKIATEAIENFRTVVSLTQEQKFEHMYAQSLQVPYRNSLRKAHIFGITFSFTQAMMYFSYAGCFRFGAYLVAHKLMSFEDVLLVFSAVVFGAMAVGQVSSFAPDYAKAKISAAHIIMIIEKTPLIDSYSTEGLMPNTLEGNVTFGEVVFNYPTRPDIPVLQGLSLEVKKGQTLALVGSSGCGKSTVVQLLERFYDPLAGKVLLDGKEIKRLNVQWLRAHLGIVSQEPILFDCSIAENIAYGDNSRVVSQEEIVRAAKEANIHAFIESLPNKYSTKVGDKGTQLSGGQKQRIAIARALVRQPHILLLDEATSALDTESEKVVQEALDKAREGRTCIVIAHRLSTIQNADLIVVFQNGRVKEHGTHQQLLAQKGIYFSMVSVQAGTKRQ
Experimental: as §3, §1, §2, §4, §5

[6] = tested on: Caco-2 cell monolayers; design: method as in PMID 11145220; settings: cited from earlier work

Compound | efflux ratio at 5 h, 20 µM [1] | efflux ratio at 5 h [1] | Papp A→B at 5 h [1] [×10⁻⁶ cm/s] | Papp B→A at 5 h [1] [×10⁻⁶ cm/s] | reduction of cell viability rate of Caco-2 cells [2] [%] | cytotoxicity to the growth of Caco-2 cells [2] | effect on PAB and PBA (transport) [3] | reduction of efflux ratio [3] [%] | reduction of PBA ([4]; 50 μM dipyridamole) [%] | reduction of efflux ratio ([4]; 50 μM dipyridamole) [%] | reduction of PBA ([5]; 50 μM verapamil) [%] | permeability of poorly absorbed compound [6] | further results
COc1ccc(-c2oc3c(CC=C(C)C)c(OC4O[C@H](CO)[C@@H](O)[C@H](O)[C@H]4O)cc(O)c3c(=O)c2OC2O[C@@H](C)[C@H](O)[C@@H](O)[C@H]2O[C@@H]2O[C@H](CO)[C@@H](O)[C@H](O)[C@H]2O)cc1 (stereo partly drawn) [epimedin A] | 2.04 | > 2 | 0.42 to 0.72 | 1.29 to 1.89 | 7 | nontoxic | did not alter | 13 | 38 | 47 | 22 | – | increase of PAB ([4]; 50 μM dipyridamole): 1.2 fold; PAB relative to control group ([5]; 50 μM verapamil): 1.5 fold; efflux ratio at 5 h, 20 µM ([5]; Caco-2, pH 7.4, with verapamil 50 µM, 50 μM verapamil, read-out: efflux ratio in the presence of verapamil): 1.03
COc1ccc(-c2oc3c(CC=C(C)C)c(O[C@@H]4O[C@H](CO)[C@@H](O)[C@H](O)[C@H]4O)cc(O)c3c(=O)c2O[C@@H]2O[C@@H](C)[C@H](O)[C@@H](O)[C@H]2O[C@@H]2OC[C@@H](O)[C@H](O)[C@H]2O)cc1 [epimedin B] | 1.98 | > 2 | 0.39 to 0.73 | 1.19 to 1.76 | 7 | nontoxic | increased | 32 | – | 50 | – | – | effect on absorptive permeability ([4]; 50 μM dipyridamole): increased significantly; effect on secretory permeability ([4]; 50 μM dipyridamole): significantly decreased; efflux ratio at 5 h, 20 µM ([4]; human, Caco-2, pH 7.4, with dipyridamole 50 µM, 50 μM dipyridamole): 1.02; effect on PAB and PBA ([5]; verapamil): increased; reduction of efflux ratio ([5]; verapamil): 31%
COc1ccc(-c2oc3c(CC=C(C)C)c(O[C@@H]4O[C@H](CO)[C@@H](O)[C@H](O)[C@H]4O)cc(O)c3c(=O)c2O[C@@H]2O[C@@H](C)[C@H](O)[C@@H](O)[C@H]2O[C@@H]2O[C@@H](C)[C@H](O)[C@@H](O)[C@H]2O)cc1 [epimedin C] | – | > 2 | 0.42 to 0.72 | 1.2 to 2.28 | 7 | nontoxic | did not significantly influence | – | 27 | – | 17 | – | increase in absorptive permeability (PAB) ([4]; 50 μM dipyridamole): 43%; fold reduction of efflux ratio at 5 h, 20 µM ([4]; human, Caco-2, pH 7.4, with dipyridamole (concentration not stated for this group), dipyridamole): ~1.95; increase in absorptive permeability (PAB) ([5]; 50 μM verapamil): 109%; efflux ratio at 5 h, 20 µM ([5]; Caco-2, pH 7.4, with verapamil (concentration not stated for this group), verapamil, read-out: reduction of efflux ratio): ~2.5
OC[C@@H](O)[C@@H](O)[C@H](O)[C@H](O)CO [mannitol] | – | – | – | – | – | – | – | – | – | – | – | 1.7e-06 cm/s | –
O=C(O)c1cc(/N=N/c2ccc(S(=O)(=O)Nc3ccccn3)cc2)ccc1O [sulfasalazine] | – | – | – | – | – | – | – | – | – | – | – | 0.34 × 10^−6 | –
